Usually IC50 stands for the point on the concentration scale where inhibition reaches its midpoint. In general, AC50 refers to the concentration at which the activity in the assay is half-maximal.

The values that follow come from publication PMC8041433 (Environmental Health Perspectives, 2021).

The target of assay [1] is AChE in neural stem cells (Homo sapiens, UniProt P22303). The assay is described as follows: cell-based.
Another assay has as its target AChE in SH-SY5Y cells (Homo sapiens, UniProt P22303). Briefly: cell-based.
Assay [2] deals with T1, recombinant human AChE (Homo sapiens, UniProt P22303). The assay is described as follows: biochemical.
Assay [3] has as its target AChE in SH-SY5Y spheroids (Homo sapiens, UniProt P22303). The assay is described as follows: cell-based. As to conditions: potency (IC50).
The target of assay [4] is T1, recombinant human AChE.
For assay [5], the target named is T1, recombinant human AChE. The assay is described as follows: biochemical. This is another data set of the same source.
Assay [6] concerns the target AChE in neural stem cell spheroids (Homo sapiens, UniProt P22303). The assay is described as follows: cell-based. As to conditions: potency (IC50).
The target in assay [7] is T1, recombinant human AChE. The assay is described as follows: biochemical. The source holds these as a separate data set.
Assay [8] concerns the target T1, recombinant human AChE. The assay is described as follows: biochemical. The assay is classed as biochemical. As to conditions: for AC50: AC50 (uM).
Setting [9] is: potency (IC50), SH-SY5Y cells monolayer.
[10] abbreviates: potency (IC50), Enzyme with microsomes.
[11] abbreviates: Neural stem cell spheroid (24 h).
Setting [12] is: Neural stem cell spheroid (48 h).

SMILES strings stand for the structures. Several values for one entry are separate records, joined by “and”; a condition that tells them apart may be missing. Equal entries are not always repeated. Where two headings read alike, the source gives them in different places.
Throughout, for IR or R: key: Reversible (R); Irreversible (IR); ND, not detected in enzyme-based AChE inhibition assay from current study.

T1 sequence (P22303 32-614): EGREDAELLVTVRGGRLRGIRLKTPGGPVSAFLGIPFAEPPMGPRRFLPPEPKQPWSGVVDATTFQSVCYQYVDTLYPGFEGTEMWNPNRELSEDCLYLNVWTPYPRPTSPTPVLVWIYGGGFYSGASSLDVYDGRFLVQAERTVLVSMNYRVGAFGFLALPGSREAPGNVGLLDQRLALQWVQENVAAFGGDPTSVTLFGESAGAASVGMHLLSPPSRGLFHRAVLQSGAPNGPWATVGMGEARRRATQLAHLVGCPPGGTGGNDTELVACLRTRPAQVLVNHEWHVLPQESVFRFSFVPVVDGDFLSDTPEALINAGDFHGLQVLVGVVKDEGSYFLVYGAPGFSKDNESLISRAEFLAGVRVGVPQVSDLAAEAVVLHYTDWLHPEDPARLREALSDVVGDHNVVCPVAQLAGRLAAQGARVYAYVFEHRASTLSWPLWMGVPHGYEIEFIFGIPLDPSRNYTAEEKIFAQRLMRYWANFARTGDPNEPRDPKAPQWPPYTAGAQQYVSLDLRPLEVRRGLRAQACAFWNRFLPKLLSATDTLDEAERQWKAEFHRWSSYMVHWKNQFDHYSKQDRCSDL
Sequence of AChE in SH-SY5Y cells (P22303 32-614): as above
Sequence of AChE in SH-SY5Y spheroids (P22303 32-614): as above
Sequence of AChE in neural stem cells (P22303 32-614): as above
Sequence of AChE in neural stem cell spheroids (P22303 32-614): as above

In the case of `CNC(=O)Oc1ccccc1OC(C)C` [Propoxur], the half-inhibitory concentration (IC50) in assay [1] was 17 ± 1.1 µM; against AChE in SH-SY5Y cells (IC50 (uM)), 2.24 µM and 2 µM (2×) and 1.59 µM and 1.78 µM; against AChE in SH-SY5Y cells (setting [9]) it was 3.05 ± 0.52 µM; at recombinant human AChE [2] it was 1.91 ± 0.12 µM; in [3] (SH-SY5Y spheroids (24 h)), 3.55 ± 2.59 µM; in [3] (SH-SY5Y spheroids (48 h)) it was 2.45 ± 0.61 µM. In addition, the 50% inhibitory concentration (IC50) on recombinant human AChE [5] (setting [10]) was 1.76 µM; in assay [6] (setting [11]), 20.1 ± 4.2 µM; in assay [6] (setting [12]), 35.8 µM; at recombinant human AChE [7] (potency (IC50), Enzyme) it was 1.55 ± 0.43 µM. The “CC-v2 (curve classes)” value at AChE in SH-SY5Y cells, at recombinant human AChE [4] and on recombinant human AChE [7] was -1.1 in each case. Also, the “IR or R” value at recombinant human AChE [8] is given as “R”. The AC50 on recombinant human AChE [8] (activity_5) is 22.2 µM and 14 µM and 6.27 µM; on recombinant human AChE [8] (activity_10), 4.98 µM and 14 µM and 7.03 µM; on recombinant human AChE [8] (activity_60), 1.77 µM and 1.11 µM and 2.5 µM.
Take `CCOP(=S)(OCC)OP(=S)(OCC)OCC` [Sulfotepp]: the half-maximal inhibitory concentration (IC50) in assay [1] was 1.25 ± 0.14 µM; against AChE in SH-SY5Y cells (IC50 (uM)), 5.02 µM and 8.18 µM and 2.52 µM and 5.16 µM and 2.24 µM and 2.59 µM; against AChE in SH-SY5Y cells (setting [9]) it was 0.96 ± 0.13 µM; at recombinant human AChE [2], 44.4 µM; in assay [3] (SH-SY5Y spheroids (24 h)), 15.3 ± 7.82 µM; in assay [3] (SH-SY5Y spheroids (48 h)), 4.12 ± 0.28 µM. Further, the half-maximal inhibitory concentration (IC50) came out at 7.89 µM on recombinant human AChE [5] (setting [10]); 0.06 ± 0.01 µM in assay [6] (setting [11]); 0.1 ± 0.02 µM in assay [6] (setting [12]); 9.97 ± 1.14 µM at recombinant human AChE [7] (potency (IC50), Enzyme). The “CC-v2 (curve classes)” value is on record as -1.1 on AChE in SH-SY5Y cells, -1.1 at recombinant human AChE [4] and -2.1 at recombinant human AChE [7]. In addition, the concentration at half-maximal activity (AC50) at recombinant human AChE [8] (activity_60) is 55.9 µM and 70.3 µM.
Turning to `Cc1c(Cl)c(=O)oc2cc(OP(=O)(OCCCl)OCCCl)ccc12` [Haloxon], the half-inhibitory concentration (IC50) in assay [1] is 0.39 µM; on AChE in SH-SY5Y cells (IC50 (uM)), 3.89 µM and 4.36 µM and 3.09 µM; against AChE in SH-SY5Y cells (setting [9]), 1.51 ± 0.09 µM; on recombinant human AChE [2] it was 1.35 ± 0.09 µM; in assay [3] (SH-SY5Y spheroids (24 h)) it was 0.88 ± 0.64 µM; in assay [3] (SH-SY5Y spheroids (48 h)), 1.12 ± 0.13 µM. Further, the half-maximal inhibitory concentration (IC50) at recombinant human AChE [5] (setting [10]) turned out to be 2.81 ± 0.32 µM; in assay [6] (setting [11]), 0.2 ± 0.17 µM; in [6] (setting [12]), 0.18 ± 0.05 µM; on recombinant human AChE [7] (potency (IC50), Enzyme), 0.63 ± 0.11 µM. The “CC-v2 (curve classes)” value at AChE in SH-SY5Y cells, at recombinant human AChE [4] and at recombinant human AChE [7] was -1.1 in each case. Further, the Efficacy on recombinant human AChE [4] was -94.886; on recombinant human AChE [7], -92.736. In addition, the AC50 at recombinant human AChE [8] is 1.4 µM and 1.57 µM (2×) and 1.11 µM (2×) and 1.25 µM and 885 nM and 993 nM.
As for `CCOC(=O)c1ccc(NC(=O)CN2CCCCC2)cc1` [Sulcaine, reference compound], the 50% inhibitory concentration (IC50) in [1] is 19.6 µM; at AChE in SH-SY5Y cells (IC50 (uM)), 30.9 µM and 27.5 µM and 15.5 µM; against AChE in SH-SY5Y cells (setting [9]) it was 15.3 µM; on recombinant human AChE [2], 23.4 ± 1.53 µM; in assay [3] (SH-SY5Y spheroids (24 h)) it was 12.9 µM; in assay [3] (SH-SY5Y spheroids (48 h)), 20.9 µM. The IC50 at recombinant human AChE [5] (setting [10]) was 23.4 µM; in [6] (setting [11]) it was 15.6 µM; in [6] (setting [12]) it was 13.7 µM; on recombinant human AChE [7] (IC50 (uM)) it was 30.9 µM; at recombinant human AChE [7] (potency (IC50), Enzyme), 20.1 µM. The “CC-v2 (curve classes)” value on AChE in SH-SY5Y cells is on record as -2.1; on recombinant human AChE [4], 4; at recombinant human AChE [7] it was -2.2. Besides, the Efficacy is 0 on recombinant human AChE [4] and -40.558 on recombinant human AChE [7]. Also, the “IR or R” value at recombinant human AChE [8] was “R”. For the same compound, the AC50 was 24.3 µM and 27.3 µM at recombinant human AChE [8] (activity_5); 24.3 µM and 27.3 µM at recombinant human AChE [8] (activity_10); 21.7 µM and 27.3 µM at recombinant human AChE [8] (activity_60).
In the case of `CCCCN(CCCC)SN(C)C(=O)Oc1cccc2c1OC(C)(C)C2` [Carbosulfan], the IC50 is 10.9 µM in assay [1]; 0.159 µM and 0.809 µM and 0.126 µM and 1.14 µM and 0.224 µM and 0.573 µM against AChE in SH-SY5Y cells (IC50 (uM)); 3.23 µM on AChE in SH-SY5Y cells (setting [9]); 1.36 ± 0.19 µM at recombinant human AChE [2]; 0.46 µM in [3] (SH-SY5Y spheroids (24 h)); 0.68 µM in assay [3] (SH-SY5Y spheroids (48 h)). For the same compound, the IC50 was 3.56 µM and 0.573 µM on recombinant human AChE [5] (IC50 (uM)); 0.44 µM on recombinant human AChE [5] (setting [10]); 5.25 µM in assay [6] (setting [11]); 8.89 µM in [6] (setting [12]); 1.67 µM on recombinant human AChE [7] (potency (IC50), Enzyme). For the same compound, the “CC-v2 (curve classes)” value on AChE in SH-SY5Y cells, on recombinant human AChE [4] and at recombinant human AChE [7] was -1.1 in each case. Besides, at recombinant human AChE [8], the “IR or R” value is recorded as “R”. In addition, the AC50 on recombinant human AChE [8] is 993 nM (3×) and 1.11 µM and 885 nM.
Turning to `CNC(=O)ON=C(C)SC` [Methomyl], the half-maximal inhibitory concentration (IC50) in assay [1] is 7.99 ± 1.49 µM; on AChE in SH-SY5Y cells (IC50 (uM)), 1.59 µM and 2 µM; against AChE in SH-SY5Y cells (setting [9]), 4.11 ± 0.27 µM; at recombinant human AChE [2], 3.83 ± 0.53 µM; in assay [3] (SH-SY5Y spheroids (24 h)), 6.41 ± 8.14 µM; in assay [3] (SH-SY5Y spheroids (48 h)), 3.81 ± 0.25 µM. The IC50 came to 3.18 ± 0.66 µM on recombinant human AChE [5] (setting [10]); 6.27 ± 2.23 µM in assay [6] (setting [11]); 9.75 µM in assay [6] (setting [12]); 1.83 ± 0.12 µM on recombinant human AChE [7] (potency (IC50), Enzyme). In addition, the “CC-v2 (curve classes)” value at AChE in SH-SY5Y cells, on recombinant human AChE [4] and on recombinant human AChE [7] was -1.1 in each case. For the same compound, the Efficacy was -96.277 at recombinant human AChE [4] and -92.651 on recombinant human AChE [7]. Besides, the “IR or R” value at recombinant human AChE [8] is “R”.
